Source: patent US12134623B1, “2,16-dioxapentacyclo[7.7.5.01,21.03,8.010,15]henicosa3(8),10,12,14-tetraene-7,20-dione as an antimicrobial compound” (KING FAISAL UNIVERSITY, priority 2023, dated 2024)

Assays:
Format in all cases: cell-based
Settings in all cases: after 10, 20, 40 and 60 minutes at all dilutions 1:100, 1:200, 1:400, 1:800
Staphylococcus aureus = experiment: Antimicrobial activity by agar dilution, Staphylococcus aureus
Protocol: (§1) The antibacterial properties of the synthesized compound (of 2,16-dioxapentacyclo[7.7.5.0^1,21.0^3,8.0^10,15]henicosa3(8), 10,12,14-tetraene-7,20-dione) were studied by the method of agar dilution. Test solutions of each compound was prepared in concentration of 1% using dimethylformamide as a solvent. Then they were diluted in physiological solution to obtain the final experimental dilutions of 1:100, 1:200, 1:400, and 1:800. The effect of these substances were compared with furacillin in a controllable study. The testing microbes used were gram positive bacteria Staphylococcus aureus, gram negative bacteria Pseudomonas aeruginosa, Escherichia coli, and Candida albicans fungus. The experiments used for this survey were meat-pentonlu agar (EPA) for cultivation of bacteria and Saburo environment for fungi. Each experiment used 1 mL of test solution on each plate for 500 minutes. Two drops of emulsified with microbes feel were added. All experimental samples were taken from the agar after 10, 20, 40, 60 minutes in the environment on the basis of Patrk planted. Bacteria were cultivated at a temperature of 37° C. for 1 day and the mushroom was kept in a thermostat for […] at a temperature of 28° C. Then results were checked. Those of control and the antimicrobial activity for the synthesized compounds are listed in Table 1 below, with furacillin serving as a reference.

Pseudomonas aeruginosa = experiment: Antimicrobial activity by agar dilution, Pseudomonas aeruginosa
Protocol: as §1

Escherichia coli = experiment: Antimicrobial activity by agar dilution, Escherichia coli
Protocol: as §1

Candida albicans = experiment: Antimicrobial (antifungal) activity by agar dilution, Candida albicans
Protocol: as §1

Measured: inhibition activity compared with the inhibition activity of Furacilin

O=C1CCCC2=C1C1c3ccccc3OC3(CCCC(=O)C13)O2 (stereo not shown) [2,16-dioxapentacyclo[7.7.5.0^1,21.0^3,8.0^10,15]henicosa3(8), 10,12,14-tetraene-7,20-dione]
higher inhibition activity: all assays above
